Laboratory results reported in ChEMBL document CHEMBL5131424, “Synthesis and evaluation of antibacterial and trypanocidal activity of derivatives of monensin A” (Bioorg Med Chem Lett, 2022).
Values after ≈ are worked out from the molar mass of the structure shown.

Key:
Staphylococcus aureus [1] = experiment: Antibacterial activity against Staphylococcus aureus ATCC 25923; type: functional
Staphylococcus aureus [2] = experiment: Antibacterial activity against Staphylococcus aureus ATCC 29213; type: functional
[3] = tested on: Staphylococcus epidermidis; experiment: Antibacterial activity against Staphylococcus epidermidis 840/19; type: functional
HL-60 = experiment: (§1) Cytotoxicity against human HL-60 cells assessed as reduction in cell viability measured after 24 hrs by resazurin dye based assay; type: toxicity; details: hl-60, 24 h
[4] = as §1; type: toxicity; details: HL-60 cells
Staphylococcus aureus [5] = experiment: Antibacterial activity against Staphylococcus aureus NCTC 4163; type: functional
[6] = tested on: Staphylococcus epidermidis; experiment: Antibacterial activity against Staphylococcus epidermidis ATCC 35984; type: functional
Staphylococcus aureus [7] = experiment: Antibacterial activity against Staphylococcus aureus ATCC 6538; type: functional
Pseudomonas aeruginosa [8] = experiment: Antibacterial activity against Pseudomonas aeruginosa ATCC 15442; type: functional
[9] = tested on: Staphylococcus epidermidis; experiment: Antibacterial activity against Staphylococcus epidermidis 825/19; type: functional
[10] = tested on: Staphylococcus epidermidis; experiment: Antibacterial activity against Staphylococcus epidermidis ATCC 12228; type: functional
[11] = tested on: Staphylococcus epidermidis; experiment: Antibacterial activity against Staphylococcus epidermidis 834/19; type: functional
Trypanosoma brucei = experiment: Antitrypanosomal activity against bloodstream form of Trypanosoma brucei clone 427-221a measured after 24 hrs by resazurin dye based assay; type: functional
[12] = tested on: Staphylococcus epidermidis; experiment: Antibacterial activity against Staphylococcus epidermidis 829/19; type: functional
Pseudomonas aeruginosa [13] = experiment: Antibacterial activity against Pseudomonas aeruginosa […]; type: functional
[14] = tested on: Staphylococcus epidermidis; experiment: Antibacterial activity against Staphylococcus epidermidis 848/19; type: functional
[15] = Selectivity ratio of MIC for cytotoxicity against human HL-60 cells to MIC for antitrypanosomal activity against bloodstream form of Trypanosoma brucei clone 427-221a; type: toxicity, cell-based
Escherichia coli [16] = experiment: Antibacterial activity against Escherichia coli ATCC 25922; type: functional
[17] = Selectivity ratio of GI50 for cytotoxicity against human HL-60 cells to GI50 for antitrypanosomal activity against bloodstream form of Trypanosoma brucei clone 427-221a; type: toxicity, cell-based; details: read-out: RatioGI50
[18] = tested on: Staphylococcus epidermidis; experiment: Antibacterial activity against Staphylococcus epidermidis 830/19; type: functional
[19] = tested on: Staphylococcus epidermidis; experiment: Antibacterial activity against Staphylococcus epidermidis 845/19; type: functional
Escherichia coli [20] = experiment: Antibacterial activity against Escherichia coli NCTC 10538; type: functional
[21] = tested on: Staphylococcus epidermidis; experiment: Antibacterial activity against Staphylococcus epidermidis 851/19; type: functional

SMILES | MIC (Staphylococcus aureus [1]) | MIC (Staphylococcus aureus [2]) | MIC [3] | MIC (Staphylococcus aureus [5]) | MIC [6] | MIC (Staphylococcus aureus [7]) | MIC (Pseudomonas aeruginosa [8]) | MIC [9] | MIC [10] | MIC [11] | GI50 (Trypanosoma brucei) | MIC (Trypanosoma brucei) | MIC [12] | MIC (Pseudomonas aeruginosa [13]) | MIC [14] | MIC (Escherichia coli [16]) | MIC (HL-60) | GI50 at 24 h [4] | selectivity ratio [15] | selectivity ratio [17] | further results
CO[C@H]([C@H](C)[C@H]1O[C@@]2(CC[C@@](C)([C@H]3CC[C@@](CO)([C@@H]4O[C@@H]([C@H]5O[C@@](O)(COC(=O)NCCCl)[C@H](C)C[C@@H]5C)C[C@@H]4C)O3)O2)C[C@H](O)[C@H]1C)[C@H](C)C(=O)O | 2 µg/mL (≈ 2.57 µM) | 2 µg/mL (≈ 2.57 µM) | 4 µg/mL (≈ 5.14 µM) | 2 µg/mL (≈ 2.57 µM) | 8 µg/mL (≈ 10.3 µM) | 4 µg/mL (≈ 5.14 µM) | > 256 µg/mL | 2 µg/mL (≈ 2.57 µM) | 2 µg/mL (≈ 2.57 µM) | 4 µg/mL (≈ 5.14 µM) | 3.48 µM | 10 µM (≈ 7.78 µg/mL) | 4 µg/mL (≈ 5.14 µM) | > 256 µg/mL | 4 µg/mL (≈ 5.14 µM) | > 256 µg/mL | 100 µM (≈ 77.8 µg/mL) | 22.4 µM | 10 | 6.4 | MIC [18]: 4 µg/mL (≈ 5.14 µM); MIC [19]: 4 µg/mL (≈ 5.14 µM); MIC (Escherichia coli [20]): > 256 µg/mL; MIC [21]: 4 µg/mL (≈ 5.14 µM)
CCCNC(=O)OC[C@]1(O)O[C@H]([C@H]2C[C@H](C)[C@H]([C@]3(CO)CC[C@H]([C@]4(C)CC[C@]5(C[C@H](O)[C@@H](C)[C@@H]([C@@H](C)[C@@H](OC)[C@H](C)C(=O)O)O5)O4)O3)O2)[C@@H](C)C[C@H]1C | 2 µg/mL (≈ 2.64 µM) | 4 µg/mL (≈ 5.28 µM) | 4 µg/mL (≈ 5.28 µM) | 2 µg/mL (≈ 2.64 µM) | 8 µg/mL (≈ 10.6 µM) | 2 µg/mL (≈ 2.64 µM) | > 256 µg/mL | 2 µg/mL (≈ 2.64 µM) | 4 µg/mL (≈ 5.28 µM) | 4 µg/mL (≈ 5.28 µM) | 2.94 µM | 10 µM (≈ 7.58 µg/mL) | 4 µg/mL (≈ 5.28 µM) | > 256 µg/mL | 4 µg/mL (≈ 5.28 µM) | > 256 µg/mL | 100 µM (≈ 75.8 µg/mL) | 24.5 µM | 10 | 8.3 | MIC [18]: 4 µg/mL (≈ 5.28 µM); MIC [19]: 4 µg/mL (≈ 5.28 µM); MIC (Escherichia coli [20]): > 256 µg/mL; MIC [21]: 4 µg/mL (≈ 5.28 µM)
CCNC(=O)OC[C@]1(O)O[C@H]([C@H]2C[C@H](C)[C@H]([C@]3(CO)CC[C@H]([C@]4(C)CC[C@]5(C[C@H](O)[C@@H](C)[C@@H]([C@@H](C)[C@@H](OC)[C@H](C)C(=O)O)O5)O4)O3)O2)[C@@H](C)C[C@H]1C | 4 µg/mL (≈ 5.38 µM) | 8 µg/mL (≈ 10.8 µM) | 8 µg/mL (≈ 10.8 µM) | 8 µg/mL (≈ 10.8 µM) | 16 µg/mL (≈ 21.5 µM) | 8 µg/mL (≈ 10.8 µM) | > 256 µg/mL | 8 µg/mL (≈ 10.8 µM) | 8 µg/mL (≈ 10.8 µM) | 4 µg/mL (≈ 5.38 µM) | 3.05 µM | 10 µM (≈ 7.44 µg/mL) | 8 µg/mL (≈ 10.8 µM) | > 256 µg/mL | 16 µg/mL (≈ 21.5 µM) | > 256 µg/mL | 100 µM (≈ 74.4 µg/mL) | 85.8 µM | 10 | 28.1 | MIC [18]: 8 µg/mL (≈ 10.8 µM); MIC [19]: 8 µg/mL (≈ 10.8 µM); MIC (Escherichia coli [20]): > 256 µg/mL; MIC [21]: 16 µg/mL (≈ 21.5 µM)

Stronger by MIC (Staphylococcus aureus [1]), values ahead:

MIC (Staphylococcus aureus [1]) | MIC (Staphylococcus aureus [2]) | MIC [3] | MIC (Staphylococcus aureus [5]) | MIC [6] | MIC (Staphylococcus aureus [7]) | MIC (Pseudomonas aeruginosa [8]) | MIC [9] | MIC [10] | MIC [11] | GI50 (Trypanosoma brucei) | MIC (Trypanosoma brucei) | MIC [12] | MIC (Pseudomonas aeruginosa [13]) | MIC [14] | MIC (Escherichia coli [16]) | SMILES | MIC (HL-60) | GI50 at 24 h [4] | selectivity ratio [15] | selectivity ratio [17] | further results
1 µg/mL (≈ 1.4 µM) | 2 µg/mL (≈ 2.8 µM) | 2 µg/mL (≈ 2.8 µM) | 2 µg/mL (≈ 2.8 µM) | 2 µg/mL (≈ 2.8 µM) | 2 µg/mL (≈ 2.8 µM) | > 256 µg/mL | 0.25 µg/mL (≈ 0.35 µM) | 1 µg/mL (≈ 1.4 µM) | 1 µg/mL (≈ 1.4 µM) | 0.29 µM | 1 µM (≈ 0.715 µg/mL) | 1 µg/mL (≈ 1.4 µM) | > 256 µg/mL | 1 µg/mL (≈ 1.4 µM) | > 256 µg/mL | CO[C@H]([C@H](C)[C@H]1O[C@@]2(CC[C@@](C)([C@H]3CC[C@@](CO)([C@@H]4O[C@@H]([C@H]5O[C@@](O)(COC(C)=O)[C@H](C)C[C@@H]5C)C[C@@H]4C)O3)O2)C[C@H](O)[C@H]1C)[C@H](C)C(=O)O | 10 µM (≈ 7.15 µg/mL) | 5.51 µM | 10 | 19 | MIC [18]: 1 µg/mL (≈ 1.4 µM); MIC [19]: 2 µg/mL (≈ 2.8 µM); MIC (Escherichia coli [20]): > 256 µg/mL; MIC [21]: 2 µg/mL (≈ 2.8 µM)
1 µg/mL (≈ 1.26 µM) | 2 µg/mL (≈ 2.52 µM) | 16 µg/mL (≈ 20.2 µM) | 2 µg/mL (≈ 2.52 µM) | 2 µg/mL (≈ 2.52 µM) | 2 µg/mL (≈ 2.52 µM) | > 256 µg/mL | 8 µg/mL (≈ 10.1 µM) | 2 µg/mL (≈ 2.52 µM) | 8 µg/mL (≈ 10.1 µM) | 0.0047 µM | 0.1 µM (≈ 0.0792 µg/mL) | 16 µg/mL (≈ 20.2 µM) | > 256 µg/mL | 16 µg/mL (≈ 20.2 µM) | > 256 µg/mL | CO[C@H]([C@H](C)[C@H]1O[C@@]2(CC[C@@](C)([C@H]3CC[C@@](CO)([C@@H]4O[C@@H]([C@H]5O[C@@](O)(COC(=O)NC(=O)CCl)[C@H](C)C[C@@H]5C)C[C@@H]4C)O3)O2)C[C@H](O)[C@H]1C)[C@H](C)C(=O)O | 10 µM (≈ 7.92 µg/mL) | 3.51 µM | 100 | 746 | MIC [18]: 16 µg/mL (≈ 20.2 µM); MIC [19]: 32 µg/mL (≈ 40.4 µM); MIC (Escherichia coli [20]): > 256 µg/mL; MIC [21]: 16 µg/mL (≈ 20.2 µM)
